Molecules are shown by their SMILES.

The data set is described as follows: Stability of NVS-A in mixtures with various compounds, 50° C./75% RH, 4 weeks, HPLC assay. The following applies: vial. Format: physicochemical. The method, then: The following Example illustrates the stability of the hemifumarate salt of 1-{4-[1-(4-cyclohexyl-3-trifluoromethyl-benzyloxyimino)-ethyl]-2-ethyl-benzyl}-azetidine-3-carboxylic acid in the presence of various compounds. Mixtures of this API with various compounds were exposed in a sealed vial to conditions of 50° C. temperature and 75% relative humidity for 4 weeks. After 4 weeks, the API degradation and sum of degradation products were assayed.
Assay method: HPLC using agilent […] and a Phenomenex Gemini C18 column. UV detection at 260 nm was used. The mobile phase used was a gradient water-acetonitrile containing 0.2% (v/v) formic acid and 10% (v/v) Triethylamine.

For `CCc1cc(C(C)=NOCc2ccc(C3CCCCC3)c(C(F)(F)F)c2)ccc1CN1CC(C(=O)O)C1` [NVS-A, 1-{4-[1-(4-cyclohexyl-3-trifluoromethyl-benzyloxyimino)-ethyl]-2-ethyl-benzyl}-azetidine-3-carboxylic acid], the “Assay (%)*” value came to 100.2% and the “Sum of unknown peaks (%)*” value was 1.86%.
